Where two headings read alike, the source gives them in different places.
Key:
JAK3 = JAK3 (Homo sapiens (Human), UniProt P52333); test: LanthaScreen JAK biochemical assay, JAK3; details: read-out: JAK 3 (pKi) (converted)
Procedure: (§1) A panel of four LanthaScreen JAK biochemical assays (JAK1, 2, 3 and Tyk2) were carried in a common kinase reaction buffer (50 mM HEPES, pH 7.5, 0.01% Brij-35, 10 mM MgCl2, and 1 mM EGTA). Recombinant GST-tagged JAK enzymes and a GFP-tagged STAT1 peptide substrate were obtained from Life Technologies.

Tyk2 = Tyk2 (Homo sapiens (Human), UniProt P29597); test: LanthaScreen JAK biochemical assay, Tyk2
Procedure: as §1

[1] = test system: IFNγ stimulated STAT1 phosphorylation in CD14+ monocytes; test: Cellular JAK potency assay: inhibition of IFNγ-induced pSTAT1; type: cell-based; details: Homo sapiens, Monocyte
Procedure: The potency of test compounds for inhibition of interferon gamma (IFNγ) stimulated STAT1 phosphorylation was measured in CD14-positive (CD14+) monocytes derived from human whole blood (Stanford Blood Center) using flow cytometry. Because IFNγ signals through JAK, this assay provides a measure of JAK cellular potency.
Monocytes were identified using a fluorescein isothiocyanate (FITC) conjugated anti-CD14 antibody (Clone RM052, Beckman Coulter), and an Alexa Fluor 647 conjugated anti-pSTAT1 antibody (pY701, Clone 4a, BD Biosciences) was used to detect STAT1 phosphorylation.
Human peripheral blood mononuclear cells (PBMC) were isolated from human whole blood of healthy donors using a ficoll gradient. […] Cells were washed twice with FACS buffer, and then resuspended in 1:10 anti-pSTAT1 Alexa Fluor 647:FACS buffer (100 μL) for 30 min at RT in the dark, washed twice in FACS buffer, and analyzed using a LSRII flow cytometer (BD Biosciences).
To determine the inhibitory potency of test compounds, the median fluorescent intensity (MFI) of pSTAT1 was measured in CD14+ monocytes. IC50 values were determined from analysis of the inhibition curves of MFI vs compound concentration. Data are expressed as pIC50 (negative decadic logarithm IC50) values (mean±standard deviation).

[2] = Determination of absorption in cannulated rats; type: in vivo, Sprague Dawley rats; details: rat
Procedure: Oral bioavailability (F %), fraction absorbed (Fa %) and fraction escaping hepatic clearance (Fh %) were determined in Sprague Dawley rats from the following two studies:
(1) Pharmacokinetics in rats following an IV dose of test compound: Following IV dosing, plasma samples were typically collected from 0-6 hr. Drug levels were determined using an LC-MS-MS method. The resulting drug levels were used to compute the IV pharmacokinetic parameters: AUC IV and Dose IV.
(2) Rats that have been cannulated in their portal vein (PV) and also in their jugular vein (JV) were dosed orally with test compound. Following oral dosing, plasma samples were typically collected from 0-6 hr from both the portal vein and the jugular vein. Drug levels were determined using an LC-MS-MS method. The resulting drug levels were used to compute the following pharmacokinetic parameters: AUC PO PV, AUC PO JV, and Dose PO.
Using data derived from the above studies, the oral bioavailability F %, and the quantities Fa % and Fh % were calculated from the following formulas: F %=(AUC PO JV/AUC IV)*(Dose IV/Dose PO)*100 Fa %=(AUC PO PV/AUC IV)*(Dose IV/Dose PO)*100 Fh %=AUC PO JV/AUC PO PV
AUC PO JV=Area under the curve following oral dose and plasma collected from the jugular vein
AUC PO PV=Area under the curve following oral dose and plasma collected from the portal vein
AUC IV=Area under the curve following an intravenous dose
Dose IV=Intravenous Dose in mg/kg
Dose PO=Oral Dose in mg/kg

[3] = test system: oxazolone-induced colitis; test: Mouse model of oxazolone-induced colitis; type: in vivo, BALB/C mice
Procedure: Oxazolone-induced colitis is an experimental model that has a histological resemblance to human ulcerative colitis (Heller et al. […], 2002, 17, 629-638). Adult BALB/C mice from Harlan were used in the assay. On day 1, animals were lightly anesthetized with isoflurane and the hairs between the shoulder were carefully removed before oxazolone (4%, 150 μL, 4:1 acetone: olive oil formulation) or vehicle solution was slowly applied for skin sensitization. Seven days after skin sensitization, the mice were fasted overnight, anesthetized with isoflurane inhalation, and a 1 mL syringe equipped with a 3.5-F catheter, filled with oxazolone solution, was inserted carefully about 4 cm into the colon of the mouse. Following insertion, 50 μL of the oxazolone solution (1%, 1:1 ethanol:water formulation) was injected very slowly (over 30 sec using an injection pump) into the colon. The catheter was removed and the mice were held vertically (head down) for 2 min to ensure that the entire oxazolone solution remained inside the colon. Drug treatment (PO, BID or TID) or vehicle was initiated a day prior to the oxazolone intrarectal (IR) challenge. Two-day post oxazolone intrarectal challenge, the Disease Activity Index (DAI) was assessed by treatment-blinded experimenters for each mouse according to the criteria score: stool consistency score (0, normal; 2, loose; 4, diarrhea), gross bleeding score (0, absence; 2, blood tinged; 4, presence), and weight loss score (0, none; 1, 1%-5%; 2, 5%-10%; 3, 10%-20%; 4, more than 20%); DAI=average of (stool consistency score+gross bleeding score+weight loss score).
Selected compounds of the invention were tested in the assay. Efficacy in the model is evidenced by a decrease in DAI score as compared with the score from vehicle treated animals.

JAK3, sequence (P52333 whole entry): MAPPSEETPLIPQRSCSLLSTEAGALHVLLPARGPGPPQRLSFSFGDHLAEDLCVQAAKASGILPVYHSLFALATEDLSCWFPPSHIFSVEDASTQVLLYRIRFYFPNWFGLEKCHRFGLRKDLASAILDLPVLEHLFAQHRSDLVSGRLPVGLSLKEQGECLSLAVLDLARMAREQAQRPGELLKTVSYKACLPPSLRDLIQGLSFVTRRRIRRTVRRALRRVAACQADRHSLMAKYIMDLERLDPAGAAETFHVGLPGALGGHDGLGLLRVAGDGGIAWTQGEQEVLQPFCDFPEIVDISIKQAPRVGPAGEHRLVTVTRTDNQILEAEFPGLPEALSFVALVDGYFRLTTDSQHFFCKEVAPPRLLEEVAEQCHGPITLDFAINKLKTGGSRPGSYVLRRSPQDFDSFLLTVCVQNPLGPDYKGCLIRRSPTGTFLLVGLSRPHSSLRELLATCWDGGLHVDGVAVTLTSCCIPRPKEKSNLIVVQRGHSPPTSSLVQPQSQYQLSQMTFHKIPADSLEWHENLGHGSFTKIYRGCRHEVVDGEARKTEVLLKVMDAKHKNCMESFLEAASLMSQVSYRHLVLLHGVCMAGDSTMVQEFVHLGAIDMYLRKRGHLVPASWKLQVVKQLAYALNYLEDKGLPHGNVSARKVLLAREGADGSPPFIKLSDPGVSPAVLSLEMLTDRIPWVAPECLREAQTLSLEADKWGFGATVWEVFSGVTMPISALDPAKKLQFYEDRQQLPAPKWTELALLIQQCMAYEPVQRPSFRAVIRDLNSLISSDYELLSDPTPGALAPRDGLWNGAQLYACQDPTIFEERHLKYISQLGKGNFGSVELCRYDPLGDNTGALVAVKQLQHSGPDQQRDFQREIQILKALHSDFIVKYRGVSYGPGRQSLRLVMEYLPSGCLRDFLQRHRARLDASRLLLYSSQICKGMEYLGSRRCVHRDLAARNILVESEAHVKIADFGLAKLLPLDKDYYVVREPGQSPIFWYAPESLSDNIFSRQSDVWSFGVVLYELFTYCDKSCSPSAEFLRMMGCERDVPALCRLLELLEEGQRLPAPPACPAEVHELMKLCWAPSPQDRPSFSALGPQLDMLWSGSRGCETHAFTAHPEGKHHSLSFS
Tyk2, sequence (P29597 whole entry): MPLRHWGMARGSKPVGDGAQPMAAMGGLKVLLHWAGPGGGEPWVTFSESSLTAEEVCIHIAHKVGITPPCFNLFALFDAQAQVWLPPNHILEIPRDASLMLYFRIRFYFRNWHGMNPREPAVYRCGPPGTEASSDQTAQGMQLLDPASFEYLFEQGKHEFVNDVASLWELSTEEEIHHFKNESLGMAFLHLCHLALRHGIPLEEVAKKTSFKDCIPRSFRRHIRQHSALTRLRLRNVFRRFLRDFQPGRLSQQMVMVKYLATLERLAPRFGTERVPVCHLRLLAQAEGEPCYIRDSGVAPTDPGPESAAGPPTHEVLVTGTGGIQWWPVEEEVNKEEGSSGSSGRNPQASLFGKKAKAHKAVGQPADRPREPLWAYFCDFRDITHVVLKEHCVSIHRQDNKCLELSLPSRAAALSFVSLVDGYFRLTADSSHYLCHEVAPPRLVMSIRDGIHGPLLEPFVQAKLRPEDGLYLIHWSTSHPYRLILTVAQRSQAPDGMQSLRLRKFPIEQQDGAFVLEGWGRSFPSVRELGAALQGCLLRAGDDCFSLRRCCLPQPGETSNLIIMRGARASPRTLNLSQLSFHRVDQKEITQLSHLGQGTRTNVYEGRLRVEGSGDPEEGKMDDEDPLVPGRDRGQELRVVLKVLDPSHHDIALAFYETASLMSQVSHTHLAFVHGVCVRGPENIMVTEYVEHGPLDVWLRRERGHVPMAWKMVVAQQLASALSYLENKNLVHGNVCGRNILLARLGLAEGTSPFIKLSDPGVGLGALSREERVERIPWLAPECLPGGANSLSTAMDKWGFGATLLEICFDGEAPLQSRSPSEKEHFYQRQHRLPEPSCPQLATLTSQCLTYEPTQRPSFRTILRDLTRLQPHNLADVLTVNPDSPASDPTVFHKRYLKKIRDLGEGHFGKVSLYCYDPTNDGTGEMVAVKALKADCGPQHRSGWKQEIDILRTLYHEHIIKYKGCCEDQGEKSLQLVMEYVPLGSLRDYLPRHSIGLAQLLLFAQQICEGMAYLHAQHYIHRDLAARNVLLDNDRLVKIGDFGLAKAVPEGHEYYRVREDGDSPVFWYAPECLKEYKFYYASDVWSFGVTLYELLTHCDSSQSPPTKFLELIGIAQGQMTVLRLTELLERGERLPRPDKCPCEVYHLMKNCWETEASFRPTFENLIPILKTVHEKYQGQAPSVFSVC

## COc1cc(Nc2cc(CO)[nH]n2)nc(N(C)[C@@H]2C[C@H]3CCC[C@@H](C2)N3S(=O)(=O)N2CC(C#N)C2)n1 [Example 2, 1-(((1R,3s,5S)-3-((4-((5-(Hydroxymethyl)-1H-pyrazol-3-yl)amino)-6-methoxypyrimidin-2-yl)(methyl)amino)-9-azabicyclo[3.3.1]nonan-9-yl)sulfonyl)azetidine-3-carbonitrile]
JAK3
  Ki: 0.1 to 1 nM
Tyk2
  Ki: 0.1 to 1 nM
[1]; IFNγ-induced pSTAT1, CD14+ monocytes, read-out: pIC50 value (converted)
  IC50: ~25.1 nM
[1]; cellular assay, Assay 5, read-out: IC50 for inhibition of IFNγ
  IC50: ≤ 50 nM
[2]; Sprague Dawley, plasma (jugular vein), oral vs IV, read-out: oral bioavailability (F %)
  bioavailability: < 5%
[2]; oral, portal vein
  absorption at the portal vein (Fa %): less than 25%
[3]; mice
  activity in the oxazolone-induced colitis model: demonstrated activity
[3]; mouse, PO BID
  minimal dose that caused a significant anti-colitic effect: 1 mg/kg
[3]; mouse, PO, 1, 3, and/or 10 mg/kg BID
  decrease in DAI score as compared with vehicle treated animals: statistically significant decrease

— patent US10028960B2, “Pyrimidine compounds as JAK kinase inhibitors” (THERAVANCE BIOPHARMA R&D IP, LLC, priority 2016, dated 2018)
